Experimental findings from paper PMC10537604, “Development and Assessment of 1,5–Diarylpyrazole/Oxime Hybrids Targeting EGFR and JNK–2 as Antiproliferative Agents: A Comprehensive Study through Synthesis, Molecular Docking, and Evaluation” (Molecules, 2023) are described below.

Where two headings read alike, the source gives them in different places.

The term inhibition denotes the relative decrease from the control value, in per cent. One may read the melting point as the temperature, or range, at which the solid turns liquid.

In data set [1] the test system is human colorectal adenocarcinoma cell line DLD-1. The experiment in a line: WST-8 antiproliferative assay, DLD-1. In kind it is cell-based. As for the experimental part:
(§1) Compounds 7a–j, 8a–j, 9a–c, and 10a–c were evaluated for in vitro anticancer activities against five different cancer cell lines, namely, human colorectal adenocarcinoma cell lines DLD-1, human cervical cancer cell line Hela, human pancreatic cancer cell line SUIT-2, human myelogenous leukemia cell line K562, and human hepatocellular carcinoma cell line HepG2 using WST-8 assay at concentrations of 100 µM to investigate the growth inhibition percent (GI%) of each compound using daunorubicin as a reference drug. […]. […] So, as a conclusion on the SAR study of those compounds as antiproliferative agents, the oxime moiety potentiated the anticancer activity and electron donating groups on R1 and R2 played an important role on this activity. Moreover, the sulfamoyl moiety on R3 seems to play a potential role in the activity of the prepared compounds (Table 1).
(§2) All selected compounds and daunorubicin were recorded as the minimum concentration required to inhibit half cell growth (IC50) and the results are listed in Table 2.
(§3) Evaluation of anticancer activity was performed according to the standard water-soluble tetrazolium-8 (WST-8) assay at the Faculty of Engineering, Yamagata University, Yonezawa, Japan, using an MTP-310 absorbance microplate reader. The EGFR inhibitory assay was carried out at the Faculty of Engineering, Yamagata University, Yonezawa, Japan, according to the protocol enzyme linked immunosorbent assay (ELISA) kits (Douset sandwich ELISA test, recombinant mouse EGFR). The JNK-2 inhibitory assay was performed at the Faculty of Engineering, Yamagata University, Yonezawa, Japan, according to the protocol of enzyme-linked immunosorbent assay (ELISA), the assay was carried out using the JNK-2 kit (Simple Step ELISA, pT183/Y185, Abcam Company, Cambridge, CB2 0AX, UK). Apoptosis and cell cycle analysis was performed at Faculty of medicine, Yamagata University, Yamagata, Japan, using BD FACS melody. Molecular docking was performed at the Nano Medical Engineering Laboratory, RIKEN Cluster for Pioneering Researchers, RIEKN, Japan, using ICM-Pro 3.8 software (MolSoft L.L.C., San Diego, CA, USA).
(§4) According to the standard water-soluble tetrazolium-8 (WST-8) assay, the current synthesized compounds have been tested for their anticancer activities against different five cancer cell lines; DLD-1, Hela, K562, SUIT-2, and HepG2 and daunorubicin was used as reference drug by the WST-8 assay. The five cells were maintained in a suspension culture, (Dulbecco’s modified eagle medium (DMEM) for SUIT-2, Hela, and HepG2 or PRIM for K562 and DLD), supplemented with 5% FBS (Fetal Bovine Serum) containing 1% of a penicillin-streptomycin (1:1) mixture. A 100 μL aliquot of cells (10,000 cells/mL) was added to a 96 well plate and incubated for 24 h at 37 °C in a humidified incubator containing 5% CO2 in the air. After 24 h, a 10 μL aliquot of test compound (concentrations varying in the range of 10–150 µM) was added to each of the 96 wells and incubated for 24 h. Then A 10 μL WST-8 solution (mixture of WST-8 and 1-methoxy PMS) was added to each well and the incubation continued for 3 h. The visible absorbance at 450 nm and 630 nm as the reference wavelength of each well was quantified using an MTP-310 absorbance microplate reader. Daunorubicin was used as a positive control. The results of cytotoxicity were recorded as growth inhibition percentages and as IC50 values.
(Tetrazolium assays rely on reduction of a dye to a coloured formazan, in cell work by metabolically active cells.)

The test system of data set [2] is human cervical cancer cell line Hela. The experiment in a line: WST-8 antiproliferative assay, Hela. The data set is classed as cell-based. The settings on record: for inhibition at 100 µM: read-out: Growth Inhibition (GI%) Hela; for IC50: read-out: IC50 Hela. On the procedure:
as §1, §2, §3
as §4, with “After 24 h, a 10 μL aliquot of test compound (concentrations varying in the range of 10–150 µM) was added to each of the 96 wells and incubated for 24 h.” left out

Data set [3] deals with human myelogenous leukemia cell line K562. The data set can be described thus: WST-8 antiproliferative assay, K562. The data set is classed as cell-based. The settings on record: Homo sapiens. On the procedure: as §1, §2, §3
as §4, with “After 24 h, a 10 μL aliquot of test compound (concentrations varying in the range of 10–150 µM) was added to each of the 96 wells and incubated for 24 h.” left out

Where [4] appears, read: DLD-1, 100 µM, WST-8 assay, read-out: Growth Inhibition (GI%) DLD-1.
Setting [5] is: K562, 100 µM, WST-8 assay, read-out: Growth Inhibition (GI%) K562.
Where [6] appears, read: K562, WST-8 assay, six concentrations 1-100 µM, read-out: IC50 K562.
Setting [7] is: WST-8 assay, six concentrations 1-100 µM.

Regarding `COc1cc(/C(C)=N/O)ccc1OC(=O)c1cc(-c2ccccc2)n(-c2ccccc2)n1` [Compound 8a, (E)–4–(1–(Hydroxyimino)ethyl)2–methoxyphenyl 1,5–diphenyl–1H–pyrazole–3–carboxylate], the melting point was 167 to 170 °C. Also, the inhibition at 100 µM in data set [1] (setting [4]) stood at 25.7%. In data set [2] (100 µM, WST-8 assay), the inhibition at 100 µM was 33%. In addition, the inhibition at 100 µM in data set [3] (setting [5]) stood at 94%. Besides, the IC50 in data set [3] (setting [6]) worked out at 22 µM.

`COc1cc(/C(C)=N/O)ccc1OC(=O)c1cc(-c2ccc(C)cc2)n(-c2ccccc2)n1` [Compound 8b, (E)–4–(1–(Hydroxyimino)ethyl)–2–methoxyphenyl 1–phenyl–5–p–tolyl–1H–pyrazole–3–carboxylate]: the melting point fell in the range of 123 to 125 °C. For the same compound, the inhibition at 100 µM in data set [1] (setting [4]) is 92%. Moreover, in data set [2] (100 µM, WST-8 assay), the inhibition at 100 µM was determined as 60%. The IC50 in data set [2] (setting [7]) stood at 32 µM. Further, in data set [3] (setting [5]), the inhibition at 100 µM is 99%. For the same compound, in data set [3] (setting [6]), the IC50 is 13 µM.

The compound `COc1cc(/C(C)=N/O)ccc1OC(=O)c1cc(-c2ccc(Cl)cc2)n(-c2ccccc2)n1` [Compound 8d, (E)–4–(1–(Hydroxyimino)ethyl)–2–methoxyphenyl 5–(4–chlorophenyl)–1–phenyl–1H–pyrazole–3–carboxylate] showed a melting point of 106 to 109 °C. Besides, in data set [1] (DLD-1, read-out: Growth Inhibition (GI%) DLD-1), the inhibition at 100 µM was 72%. The IC50 in data set [1] (DLD-1, read-out: IC50 DLD-1) is 14.4 µM. In data set [2], the inhibition at 100 µM turned out to be 48% and the IC50 was 57 µM. Also, in data set [3] (K562, read-out: Growth Inhibition (GI%) K562), the inhibition at 100 µM was 95%. Moreover, the IC50 in data set [3] (K562, read-out: IC50 K562, WST-8 assay, six concentrations 1-100 µM) came to 9 µM.

In the case of `COc1ccc(-c2cc(C(=O)Oc3ccc(/C(C)=N/O)cc3OC)nn2-c2ccccc2)cc1OC` [Compound 8e, (E)–4–(1–(Hydroxyimino)ethyl)–2–methoxyphenyl 5–(3,4–dimethoxy phenyl)–1–phenyl–1H–pyrazole–3–carboxylate], the melting point lay in the range of 115 to 118 °C. Further, the inhibition at 100 µM in data set [1] (setting [4]) amounted to 29.2%. In addition, in data set [2] (100 µM, WST-8 assay), the inhibition at 100 µM came to 77%. For the same compound, in data set [2] (setting [7]), the IC50 came to 22 µM. Also, the inhibition at 100 µM in data set [3] (setting [5]) stood at 93%. Further, in data set [3] (setting [6]), the IC50 turned out to be 20 µM.

Consider `COc1cc(/C(C)=N/O)ccc1OC(=O)c1cc(-c2ccccc2)n(-c2ccc(S(N)(=O)=O)cc2)n1` [Compound 8f, (E)–4–(1–(Hydroxyimino)ethyl)–2–methoxyphenyl 5–phenyl–1–(4–sulfamoyl phenyl)–1H–pyrazole–3–carboxylate], for which the melting point lay within 122 to 124 °C. The inhibition at 100 µM in data set [1] (setting [4]) amounted to 72.9%. In data set [2] (100 µM, WST-8 assay), the inhibition at 100 µM came out at 107%. In data set [2] (setting [7]), the IC50 was 22 µM. Further, the inhibition at 100 µM in data set [3] (setting [5]) came to 76%. Further, the IC50 in data set [3] (setting [6]) was 15.6 µM.

With `COc1cc(/C(C)=N/O)ccc1OC(=O)c1cc(-c2ccc(C)cc2)n(-c2ccc(S(N)(=O)=O)cc2)n1` [Compound 8g, (E)–4–(1–(Hydroxyimino)ethyl)–2–methoxyphenyl 1–(4–sulfamoylphenyl)–5–p–tolyl–1H–pyrazole–3–carboxylate], the inhibition at 100 µM in data set [1] (setting [4]) was determined as 85.8%; in data set [2] (100 µM, WST-8 assay) it was 78%; in data set [3] (setting [5]), 87%. Moreover, the values for the IC50 in data set [2] (setting [7]) and in data set [3] (setting [6]) were 8 µM and 7.6 µM, respectively.

As to `COc1ccc(-c2cc(C(=O)Oc3ccc(/C(C)=N/O)cc3OC)nn2-c2ccc(S(N)(=O)=O)cc2)cc1` [Compound 8h, (E)–4–(1–(Hydroxyimino)ethyl)–2–methoxyphenyl 5–(4–methoxyphenyl)–1–(4–sulfamoyl phenyl)–1H–pyrazole–3–carboxylate], the melting point lay within 125 to 127 °C. The inhibition at 100 µM in data set [1] (setting [4]) is 52.3%. Moreover, the inhibition at 100 µM in data set [2] (100 µM, WST-8 assay) was 7%. Besides, the IC50 in data set [2] (setting [7]) is 74 µM. The inhibition at 100 µM in data set [3] (setting [5]) came out at 78%. In addition, in data set [3] (setting [6]), the IC50 turned out to be 21 µM.

With `COc1cc(/C(C)=N/O)ccc1OC(=O)c1cc(-c2ccc(Cl)cc2)n(-c2ccc(S(N)(=O)=O)cc2)n1` [Compound 8i, (E)–4–(1–(Hydroxyimino)ethyl)–2–methoxyphenyl 5–(4–chlorophenyl)–1–(4–sulfamoyl phenyl)–1H–pyrazole–3–carboxylate], the inhibition at 100 µM was 34% in data set [1] (setting [4]); 100% in data set [2] (100 µM, WST-8 assay); 97% in data set [3] (setting [5]). Also, the IC50 was found to be 13 µM in data set [2] (setting [7]) and 71 µM in data set [3] (setting [6]).

As for `C/C(=N\O)c1ccc(NC(=O)c2cc(-c3ccccc3)n(-c3ccc(S(N)(=O)=O)cc3)n2)cc1` [Compound 10a, (E)–N–(4–(1–(Hydroxyimino)ethyl)phenyl)–5–phenyl–1–(4–sulfamoylphenyl)–1H–pyrazole–3–carboxamide], the inhibition at 100 µM is 99% in data set [1] (setting [4]); 0% in data set [2] (100 µM, WST-8 assay); 84% in data set [3] (setting [5]). Besides, in data set [3] (setting [6]), the IC50 amounted to 16 µM.

The compound `COc1ccc(-c2cc(C(=O)Nc3ccc(/C(C)=N/O)cc3)nn2-c2ccc(S(N)(=O)=O)cc2)cc1` [Compound 10b, (E)–N–(4–(1–(Hydroxyimino)ethyl)phenyl)–5–(4–methoxyphenyl)–1–(4–sulfamoylphenyl)–1H–pyrazole–3–carboxamide] returned a melting point of 110 to 112 °C. Moreover, the inhibition at 100 µM in data set [1] (setting [4]) was found to be 72.5%. For the same compound, the inhibition at 100 µM in data set [2] (100 µM, WST-8 assay) was determined as 2%. The inhibition at 100 µM in data set [3] (setting [5]) is 84%.

As for `COc1ccc(-c2cc(C(=O)Nc3ccc(/C(C)=N/O)cc3)nn2-c2ccc(S(N)(=O)=O)cc2)cc1OC` [Compound 10c, (E)–5–(3,4–Dimethoxyphenyl)–N–(4–(1–(hydroxyimino)ethyl)phenyl)–1–(4–sulfamoyl phenyl)–1H–pyrazole–3–carboxamide], the inhibition at 100 µM amounted to 92.4% in data set [1] (setting [4]); 75% in data set [2] (100 µM, WST-8 assay); 87% in data set [3] (setting [5]). For the same compound, the IC50 is 5 µM in data set [2] (setting [7]) and 29 µM in data set [3] (setting [6]).
